Assay results reported in patent US20020182240A1, “Cosmetics with hydrofluoroether (HFE)” (Daikin Industries, priority 1997, published 2002).

Key:
[1] = viscosity by Brookfield type viscometer or capillary tube viscometer; type: physicochemical
Method: The viscosity of the fluorine-containing oil is e.g. at least 5 mPa·s, particularly 10 to 10,000 mPa·s. The viscosity of the fluorine oil (and the HFE) was measured by a Brookfield type viscometer or a capillary tube viscometer.

the skin = test: use of the cosmetic applied onto the skin (feeling in use, evaporation of the HFE, skin moisture); type: in vivo; conditions: after the cosmetic was applied onto the skin
Method: 50% by weight of a perfluoropolyether (FOMBLIN HC/04 manufactured by Audimont) (viscosity at 25° C.: 70 mPa·s) was mixed with 50% by weight of C4F9OCH3 (HFE A) (viscosity at 25° C.: 0.6 mPa·s) under stirring to give a solution. Thereafter, a very small amount of a perfume was added to give a non-aqueous lotion. This non-aqueous lotion was felt very smooth in use.
The powder ingredients in the formulation shown in Table 2 were mixed and ground with an atomizer and then transferred to a Henschel mixer. Then FOMBLIN HC/04 was added thereto, and the mixture was uniformly mixed. The mixture was dispersed in […] (HFE B) (viscosity at 25° C.: 0.7 mPa·s) to give a solvent dispersion-type foundation. This solvent dispersion-type foundation was felt very smooth in use.
The ingredients (1) to (8) in the formulation shown in Table 3 were mixed and ground in a colloid mill. After this mixture was heated at 80° C., the ingredients (9) to (13) which had been heated and mixed at 80° C. were added thereto and emulsified uniformly in a homomixer. The ingredient (14) was added to this emulsion, further emulsified uniformly in a homomixer, and cooled to room temperature to give a liquid foundation. This liquid foundation was felt very smooth in use. […]

| Molecule | viscosity at 25° C. [1] [mPa·s] | evaporation of the HFE (the skin) |
| --- | --- | --- |
| FC(F)C(F)(F)OCC1(COCC(COC(F)(F)C(F)F)(COC(F)(F)C(F)F)COC(F)(F)C(F)F)COC1 [chemical formula B] | 40 |  |
| C4F9OCH3 [HFE A] | 0.6 | evaporated rapidly |
| CCOC(F)(F)C(F)(F)C(F)(F)C(F)(F)F [HFE B, C4F9OC2H5] | 0.7 | evaporated rapidly |
